The record followed here is US8008478B2, “Process for the preparation of cefixime” (Lupin Limited, priority 2004, dated 2011).

Each structure is given as a SMILES string.

This data set in a line: Solubility check of a 3.3% solution of cefixime (I) in methanol. The data set is classed as physicochemical. The settings on record: for Solubility: 3.3% solution of cefixime (I) in methanol. The method, then:
The most preferred embodiment of the present invention is the acidification of the filtrate obtained in step (ii) to pH 2.0 to 3.0, preferably to 2.2 to 2.4 with dilute […] filtration at 50-80°, preferably at 60-70° C., most preferably at 64-68° C.

Turning to `C=CC1=C(C(=O)O)N2C(=O)C(NC(=O)/C(=N\OCC(=O)O)c3csc(N)n3)C2SC1` (stereo not drawn) [cefixime (I), [6R-[6α,7β(Z)]]-7-[[(2-amino-4-thiazolyl)[(carboxymethoxy)imino]acetyl]amino]-3-vinyl-3-cephem-4-carboxylic acid], the Solubility result is “Hazy” (acidification and isolation of cefixime methyl ester (IV) at 25-30° C.); “Hazy” (acidification and isolation of cefixime methyl ester (IV) at 45-47° C.); “Clear” (acidification and isolation of cefixime methyl ester (IV) at 65-67° C.). For the setting “acidification and isolation of cefixime ester (IV) at 50-80° C., then alkaline hydrolysis”, the “Solubility profile (in words)” value is recorded as “better solubility profile”. Besides, the “Solubility (in words)” value (acidification and isolation of cefixime ester (IV) at temperature below 50° C., then alkaline hydrolysis) is listed as “poor solubility”.
